From patent publication US20070004620A1, “Fp receptor antagonists or pgf2 alpha antagonists for treating pathological conditions of the uterus” (priority 2002, published 2007)
Entries after “also recorded” stand apart in the source; their conditions may differ.

Tests used:
PGF2α receptor = details: cited from earlier work
EP4 = EP4 (Homo sapiens, UniProt P35408); details: 10 μM; cited from earlier work
DP = biological target: T1, DP (Homo sapiens, UniProt Q13258); details: 10 μM; cited from earlier work
T1 sequence (Q13258 1-359): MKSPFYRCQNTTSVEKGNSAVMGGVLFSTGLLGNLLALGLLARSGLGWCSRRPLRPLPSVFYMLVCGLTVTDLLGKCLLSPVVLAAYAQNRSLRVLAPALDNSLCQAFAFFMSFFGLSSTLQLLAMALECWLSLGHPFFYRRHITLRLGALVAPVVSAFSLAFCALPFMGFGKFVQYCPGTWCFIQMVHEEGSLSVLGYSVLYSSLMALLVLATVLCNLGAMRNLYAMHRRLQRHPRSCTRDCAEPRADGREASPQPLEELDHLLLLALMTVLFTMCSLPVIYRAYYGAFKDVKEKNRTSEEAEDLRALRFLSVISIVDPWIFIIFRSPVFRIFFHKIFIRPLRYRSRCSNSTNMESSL

TP = biological target: T2, TP (Homo sapiens, UniProt P21731); details: 10 μM; cited from earlier work
T2 sequence (P21731 1-343): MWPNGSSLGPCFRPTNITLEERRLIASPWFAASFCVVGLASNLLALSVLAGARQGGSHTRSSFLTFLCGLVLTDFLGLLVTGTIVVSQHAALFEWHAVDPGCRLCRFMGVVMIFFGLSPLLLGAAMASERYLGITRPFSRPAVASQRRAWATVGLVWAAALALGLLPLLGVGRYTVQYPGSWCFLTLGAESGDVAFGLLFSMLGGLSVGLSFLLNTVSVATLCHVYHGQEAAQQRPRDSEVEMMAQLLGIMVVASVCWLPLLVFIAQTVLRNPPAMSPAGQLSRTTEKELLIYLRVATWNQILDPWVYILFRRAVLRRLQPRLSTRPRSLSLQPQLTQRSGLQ

EP2 = EP2 (Homo sapiens, UniProt P43116); details: 10 μM; cited from earlier work
Chain of EP2 (P43116 whole entry): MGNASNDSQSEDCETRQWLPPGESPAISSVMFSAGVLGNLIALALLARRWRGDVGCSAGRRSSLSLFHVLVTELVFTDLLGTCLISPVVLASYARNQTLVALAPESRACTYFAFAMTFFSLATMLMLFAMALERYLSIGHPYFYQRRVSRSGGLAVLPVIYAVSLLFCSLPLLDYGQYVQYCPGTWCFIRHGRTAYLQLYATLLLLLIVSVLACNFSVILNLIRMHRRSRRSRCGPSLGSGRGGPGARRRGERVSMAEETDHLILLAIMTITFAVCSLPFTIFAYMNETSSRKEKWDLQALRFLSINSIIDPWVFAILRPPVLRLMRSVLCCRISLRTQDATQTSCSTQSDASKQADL

Ishikawa cells [1] = test: Proliferation assay (BrdU incorporation ELISA) in Ishikawa cells; assay type: cell-based, human; details: U73122 2μM, no PGF2α
Procedure: Proliferation of Ishikawa cells was determined using a BrdU incorporation ELISA (Roche Diagnostics GmbH, Mannheim, Germany). Briefly, Ishikawa cells were seeded at 5×10^3 cells per well in a 96-well plate and allowed to adhere overnight. Cells were next starved for 24 hr with indomethacin 1.5 μg/ml before 24 h PGF2α treatment (1 nM-1 μM) in serum-free medium containing indomethacin. Inhibitors were added to cells for 60 min before PGF2α with the control well receiving the same concentration of vehicle. Following 24 h treatment, cells were labelled with BrdU for 4 h, then fixed and assayed for BrdU incorporation using standard immunohistochemical techniques. Results were plotted as percentages of untreated cells.

Ishikawa cells [2] = test: ERK phosphorylation in Ishikawa cells; assay type: cell-based, human; details: 100 nM, treatment for 10 min
Procedure: ERK phosphorylation in Ishikawa cells. PGF2α 100 nM was incubated for 10 and 30 min. U73122 2 μM was pre-incubated for 60 min before treatment with PGF2α.

Ishikawa cells [3] = test: Total inositol phosphate (InsP) assay in Ishikawa cells; assay type: cell-based, human; details: PGF2α 100 nM
Procedure: (§1) PGF2α stimulation of total InsP production was as described (21). Briefly, tissue samples or Ishikawa cells were incubated with inositol free DMEM containing 1% dialyzed heat-inactivated FCS and 0.5 μCi/well myo-[^3H]inositol (Amersham Pharmacia Biotech) for 48 hours. Medium was removed, and cells washed with 1 ml buffer (140 mM NaCl, 20 mM HEPES, 4 mM KCl, 8 mM glucose, 1 mM MgCl2, 1 mM CaCl2, 1 mg/ml bovine serum albumin) containing 10 mM LiCl. Cells were then incubated for 1 hour at 37° C. in 1 ml buffer with or without inhibitors. Following incubation agonist was added at the required concentration and cells incubated for 1 hour. Reactions were terminated by the removal of agonist and the addition of 500 μl ice cold 10 mM formic acid, which was incubated for 30 minutes at 4° C. Total [^3H] inositol phosphates was separated from the formic acid cell extracts on AG 1-X8 anion exchange resin (Bio-Rad) and eluted with a 1 M ammonium formate/0.1 M formic acid solution. The associated radioactivity was determined by liquid scintillation counting and plotted relative to protein concentrations determined using the modified Lowry method.

HCT-8 = HCT-8 human colon adenocarcinoma cell line; cited from earlier work
human endometrium = test: Total inositol phosphate (InsP) assay in human endometrium tissue; assay type: cell-based
Procedure: as §1

HT-29 = HT-29 human colon adenocarcinoma cell line; cited from earlier work

Chain of EP4 (P35408 whole entry): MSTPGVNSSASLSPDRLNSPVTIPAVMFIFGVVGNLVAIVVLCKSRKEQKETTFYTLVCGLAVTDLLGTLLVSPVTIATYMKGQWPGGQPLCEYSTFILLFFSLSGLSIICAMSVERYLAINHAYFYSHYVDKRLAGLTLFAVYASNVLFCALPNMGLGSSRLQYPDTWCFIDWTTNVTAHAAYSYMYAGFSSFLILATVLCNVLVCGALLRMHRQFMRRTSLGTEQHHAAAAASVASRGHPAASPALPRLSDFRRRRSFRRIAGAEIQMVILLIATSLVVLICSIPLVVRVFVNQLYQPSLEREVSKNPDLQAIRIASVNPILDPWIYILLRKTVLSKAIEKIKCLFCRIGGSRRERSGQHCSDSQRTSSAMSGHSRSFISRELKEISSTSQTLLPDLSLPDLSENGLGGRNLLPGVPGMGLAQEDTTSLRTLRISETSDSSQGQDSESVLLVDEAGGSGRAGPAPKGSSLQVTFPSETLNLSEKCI

## CCCCC(F)[C@H](O)/C=C/[C@H]1CC[C@H](O)[C@@H]1C/C=C\CCCC(=O)O (stereo partly drawn) [AL-3138, 11-deoxy-16-fluoro PGF2α]
PGF2α receptor
  agonist activity at the PGF2α (FP) receptor: weak partial agonist; also recorded: partial agonist of low efficacy
  antagonist activity at the PGF2α (FP) receptor: highly selective antagonist

## O=C(O)CCC/C=C\C[C@@H]1[C@@H](/C=C/[C@H](O)C2Cc3ccccc3C2)[C@@H](F)C[C@@H]1O [AL-8810, (5Z, 13E)-(9S,11S,15R)-9,15-dihydroxy-11-fluoro-15-(2-indanyl)-16,17,18,19,20-pentanor-5,13-prostadienoic acid]
PGF2α receptor
  FP receptor antagonist potency: micromolar
  agonist activity at the PGF2α (FP) receptor: weak partial agonist
  antagonist activity at the PGF2α (FP) receptor: highly selective antagonist
EP4
  inhibition of functional responses of EP4: not to significantly inhibit
DP
  inhibition of functional responses of DP: not to significantly inhibit
TP
  inhibition of functional responses of TP: not to significantly inhibit
EP2
  inhibition of functional responses of EP2: not to significantly inhibit

## COc1ccc2c(c1)CC[C@@H]1[C@@H]2CC[C@]2(C)[C@@H](NCCCCCCN3C(=O)C=CC3=O)CC[C@@H]12 [U73122]
Ishikawa cells [1]
  basal proliferation after pre-incubation with inhibitor: 93.9±1.9%

## Cc1ccc(S(=O)(=O)NC(=O)NN2CCCCCC2)cc1 [tolazamide]
PGF2α receptor
  antagonist activity at the PGF2α (FP) receptor: very weak antagonists

## CCCCNC(=O)NS(=O)(=O)c1ccc(C)cc1 [tolbutamide]
PGF2α receptor
  antagonist activity at the PGF2α (FP) receptor: very weak antagonists

## prostaglandin F2α [PGF2α]
Ishikawa cells [2]
  fold increase in phosphorylated ERK intensity compared to native ERK: 6.6±0.7 fold
Ishikawa cells [3]
  total InsP, maximum: 29 cpm/mg protein
HCT-8
  proliferation by PGF2α: lack of proliferation
Human endometrium
  concentration at which maximal InsP mobilisation was observed: 100 nM
HT-29
  proliferation by PGF2α: lack of proliferation
